{
  "source": "PubChem BioAssay AID258",
  "about": "(DTP/NCI, 2004)",
  "system": "CD2F1 mice, L1210 leukemia sc, survival T/C",
  "assay": "NCI In Vivo Anticancer Drug Screen. Data for tumor model L1210 Leukemia (subcutaneous) in CD2F1 (CDF1) mice",
  "conditions": "endpoint: median survival time, higher = longer survival",
  "in_short": "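Mice with transplanted tumor dosed; survival/tumor size read; T/C vs vehicle controls.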",
  "note": "Several values for one entry are separate records, joined by “and”; a condition that tells them apart may be missing. Equal entries are not always repeated. Inconclusive results and toxic doses are left out.",
  "data": [
    {"compound": "COc1cccc2c1C(=O)c1c(O)c3c(c(O)c1C2=O)C[C@@](O)(C(C)=O)C[C@@H]3OC1CC(N)C(O)C(C)O1", "note": "(stereo partly specified)", "values": [
      {"measurement": "T/C", "setting": "dose: 0.25 mg/kg/injection, schedule: Q01DX009 (ip), vehicle: saline", "value": "97 % of control and 100 % of control"},
      {"measurement": "T/C", "setting": "dose: 0.25 mg/kg/injection, schedule: Q01DX009 (sc), vehicle: saline", "value": "98 % of control"},
      {"measurement": "T/C", "setting": "dose: 0.5 mg/kg/injection, schedule: Q01DX009 (ip), vehicle: saline", "value": "96 % of control and 98 % of control"},
      {"measurement": "T/C", "setting": "dose: 0.5 mg/kg/injection, schedule: Q01DX009 (sc), vehicle: saline", "value": "104 % of control"},
      {"measurement": "T/C", "setting": "dose: 1.0 mg/kg/injection, schedule: Q01DX009 (ip), vehicle: saline", "value": "101 % of control and 96 % of control (2×)"},
      {"measurement": "T/C", "setting": "dose: 1.0 mg/kg/injection, schedule: Q01DX009 (sc), vehicle: saline", "value": "107 % of control"},
      {"measurement": "T/C", "setting": "dose: 1.5 mg/kg/injection, schedule: Q01DX009 (ip), vehicle: saline", "value": "100 % of control"},
      {"measurement": "T/C", "setting": "dose: 2.0 mg/kg/injection, schedule: Q01DX009 (ip), vehicle: saline", "value": "101 % of control and 102 % of control and 98 % of control"},
      {"measurement": "T/C", "setting": "dose: 2.0 mg/kg/injection, schedule: Q01DX009 (sc), vehicle: saline", "value": "109 % of control"},
      {"measurement": "T/C", "setting": "dose: 3.0 mg/kg/injection, schedule: Q01DX009 (ip), vehicle: saline", "value": "97 % of control"},
      {"measurement": "T/C", "setting": "dose: 4.0 mg/kg/injection, schedule: Q01DX009 (ip), vehicle: saline", "value": "98 % of control"},
      {"measurement": "T/C", "setting": "dose: 4.0 mg/kg/injection, schedule: Q01DX009 (sc), vehicle: saline", "value": "120 % of control"},
      {"measurement": "T/C", "setting": "dose: 16.0 mg/kg/injection, schedule: Q01DX009 (sc), vehicle: saline", "value": "118 % of control"},
      {"measurement": "T/C", "setting": "dose: 23.0 mg/kg/injection, schedule: Q01DX Z (sc), vehicle: water", "value": "120 % of control"}
    ]},
    {"compound": "CN(N=O)C(=O)N[C@@H](C=O)[C@@H](O)[C@H](O)[C@H](O)CO", "values": [
      {"measurement": "T/C", "setting": "dose: 12.5 mg/kg/injection, schedule: Q01DX009 (ip), vehicle: other", "value": "110 % of control"},
      {"measurement": "T/C", "setting": "dose: 12.5 mg/kg/injection, schedule: Q01DX009 (sc), vehicle: other", "value": "104 % of control and 109 % of control"},
      {"measurement": "T/C", "setting": "dose: 25.0 mg/kg/injection, schedule: Q01DX009 (ip), vehicle: other", "value": "124 % of control"},
      {"measurement": "T/C", "setting": "dose: 25.0 mg/kg/injection, schedule: Q01DX009 (sc), vehicle: other", "value": "106 % of control and 122 % of control"},
      {"measurement": "T/C", "setting": "dose: 50.0 mg/kg/injection, schedule: Q01DX009 (sc), vehicle: other", "value": "109 % of control"},
      {"measurement": "T/C", "setting": "dose: 100.0 mg/kg/injection, schedule: Q01DX009 (ip), vehicle: other", "value": "121 % of control"},
      {"measurement": "T/C", "setting": "dose: 100.0 mg/kg/injection, schedule: Q01DX009 (sc), vehicle: other", "value": "115 % of control"},
      {"measurement": "T/C", "setting": "dose: 200.0 mg/kg/injection, schedule: Q01DX009 (sc), vehicle: other", "value": "111 % of control"}
    ]},
    {"compound": "O=NN(CCF)C(=O)NC1CCCCC1", "values": [
      {"measurement": "T/C", "setting": "dose: 1.85 mg/kg/injection, schedule: Q01DX Z (sc), vehicle: carboxymethylcellulose (CMC)", "value": "100 % of control"},
      {"measurement": "T/C", "setting": "dose: 3.75 mg/kg/injection, schedule: Q01DX Z (sc), vehicle: carboxymethylcellulose (CMC)", "value": "111 % of control"},
      {"measurement": "T/C", "setting": "dose: 7.5 mg/kg/injection, schedule: Q01DX Z (sc), vehicle: carboxymethylcellulose (CMC)", "value": "376 % of control"},
      {"measurement": "T/C", "setting": "dose: 15.0 mg/kg/injection, schedule: Q01DX Z (sc), vehicle: carboxymethylcellulose (CMC)", "value": "394 % of control"},
      {"measurement": "T/C", "setting": "dose: 30.0 mg/kg/injection, schedule: Q01DX Z (sc), vehicle: carboxymethylcellulose (CMC)", "value": "211 % of control"}
    ]},
    {"compound": "O=C(O)CCCc1ccc(N(CCCl)CCCl)cc1", "values": [
      {"measurement": "T/C", "setting": "dose: 1.5 mg/kg/injection, schedule: Q01DX009 (ip), vehicle: saline with Tween-80", "value": "98 % of control"},
      {"measurement": "T/C", "setting": "dose: 3.0 mg/kg/injection, schedule: Q01DX009 (ip), vehicle: saline with Tween-80", "value": "107 % of control"},
      {"measurement": "T/C", "setting": "dose: 6.0 mg/kg/injection, schedule: Q01DX009 (ip), vehicle: saline with Tween-80", "value": "107 % of control"},
      {"measurement": "T/C", "setting": "dose: 12.0 mg/kg/injection, schedule: Q01DX009 (ip), vehicle: saline with Tween-80", "value": "123 % of control"}
    ]}
  ]
}
